Converted amounts (≈) assume the structure as drawn. Read-outs that look alike come from different tables or passages of the source. Marks after values point to notes of the source that are not given here. Where a SMILES comes first, the peptide text is derived from it. Bridges are numbered along the chain shown (N, C = ends). Where no end group is shown, it is not given here. The star is where a group is joined. Acm = CC(=O)NC*
Experiments:
Type in all cases: cell-based
E. coli ATCC 25922 = conditions: for MIC: ATCC 25922, 24 h; for MIC E. coli 25922 Expt. #1 / MIC E. coli 25922 Expt. #2: ATCC 25922
Protocol: (§1) The minimal inhibitory concentration (MIC) for the peptides was determined in sterile microtiter plates in a final volume of 200 μL using Trypticase Soy Broth (TSB; Difco Laboratories, Detroit, Mich.) as the growth medium. Serial two-fold dilutions of the peptide stock were made in the plate wells such that concentrations ranged from 512 to 2 μg/mL in a volume of 100 μL. Each well was then inoculated with 100 μL of a dilute suspension of bacteria in TSB yielding a final concentration of 1×10^4 bacteria/mL. The final peptide concentrations ranged from […]. The assay plates were incubated at 37° C. for 24 hours inside a Bioscreen C microtitre plate reader (Thermo Labsystems; Vantaa, Finland). Optical Density (OD) of the medium at 600 nm was recorded every 20 minutes to monitor cell growth. The lowest concentration of peptide preventing bacterial growth during the 24 hr period was defined as the MIC.

P. aeruginosa 27853 = tested on: P. aeruginosa 27853
Protocol: as §1

K. pneumoniae 700603 = tested on: K. pneumoniae 700603
Protocol: as §1

S. aureus 29213 = tested on: S. aureus 29213
Protocol: as §1

E. coli ATCC #25922 = conditions: ATCC #25922, 4 h
Protocol: Antimicrobial activity of the peptide immobilized on polymer substrates was evaluated in a Shake Flask Test. Test substance (polymer with immobilized peptide) or control substance (polymer alone) (50 mg suspended in […] phosphate buffer (pH 7)) was added to a sterile culture plate well; a dilute suspension of bacteria (1×10^5 cells/mL final concentration in the well) in 0.6 mM phosphate buffer was added to the well for a final volume of 5 mL. The plate was shaken on a platform shaker at room temperature. At specified times (4 hours and 24 hours), an aliquot was removed from the culture plate (0.1 mL, in triplicates), and serial dilutions ranging from 1 to 100 fold were made for enumeration of cells on trypticase soy agar (TSA) plates. The TSA plates were incubated for 20 hr at 37° C., and the number of colony forming units (CFU) per mL was determined.

Compound | MIC (E. coli ATCC 25922) [µg/mL] | MIC P. aeruginosa 27853 (P. aeruginosa 27853) [µg/mL] | MIC K. pneumoniae 700603 (K. pneumoniae 700603) [µg/mL] | MIC E. coli 25922 Expt. #1 (E. coli ATCC 25922) | MIC E. coli 25922 Expt. #2 (E. coli ATCC 25922) [µg/mL] | MIC S. aureus 29213 (S. aureus 29213; 29213) [µg/mL] | log reduction in E. coli CFU/mL (E. coli ATCC #25922) [log] | MIC S. aureus 29213 (S. aureus 29213; ATCC 29213)
CC(=O)NCSC[C@H](NC(=O)[C@H](CC(C)C)NC(=O)[C@H](CCCCN)NC(=O)[C@H](CC(C)C)NC(=O)[C@H](CC(C)C)NC(=O)[C@H](CCCCN)NC(=O)[C@H](CCCCN)NC(=O)[C@H](CC(C)C)NC(=O)CNC(=O)[C@H](CCCCN)NC(=O)[C@H](CC(C)C)NC(=O)[C@H](CC(C)C)NC(=O)[C@H](CCCCN)NC(=O)[C@H](CCCCN)NC(=O)[C@H](CC(C)C)NC(=O)[C@@H](N)CSCNC(C)=O)C(=O)O [SEQ ID NO:25, CLKKLLKGLKKLLKLC] (H-C(Acm)LKKLLKGLKKLLKLC(Acm)-OH; N-terminus and C-terminus assumed) | 8 (≈ 4.03 µM) | – | – | – | – | – | – | –
KGLKKLGKLLKKLLKL [SEQ ID NO:42, KGLKKLGKLLKKLLKL] | – | 8 to 16 | 4 to 8 | <=4* μg/mL | 2 | 64 | – | –
KGLKKLLKGLKKLLKL [SEQ ID NO:1, KGLKKLLKGLKKLLKL] | 4 | 2 | 8 to 16 | – | 2 to 4 | 8 | 4.6 | –
KGLKKLLKLLKKGLKL [SEQ ID NO:5, KGLKKLLKLLKKGLKL] | – | 8 | 8 to 16 | <=4* μg/mL | 2 | – | – | 32+ μg/mL
CC(=O)NCSC[C@H](NC(=O)[C@H](CC(C)C)NC(=O)[C@H](CCCCN)NC(=O)[C@H](CC(C)C)NC(=O)[C@H](CC(C)C)NC(=O)[C@H](CCCCN)NC(=O)[C@H](CCCCN)NC(=O)[C@H](CC(C)C)NC(=O)CNC(=O)[C@H](CCCCN)NC(=O)[C@H](CC(C)C)NC(=O)[C@H](CC(C)C)NC(=O)[C@H](CCCCN)NC(=O)[C@H](CCCCN)NC(=O)[C@H](CC(C)C)NC(=O)[C@H](CSCNC(C)=O)NC(=O)[C@@H](N)CCCCN)C(=O)O [compound 17, KC(Acm)LKKLLKGLKKLLKLC(Acm)] (H-KC(Acm)LKKLLKGLKKLLKLC(Acm)-OH; N-terminus and C-terminus assumed) | 4 (≈ 1.89 µM) | – | – | – | – | – | – | –
CC(C)C[C@@H]1NC(=O)CNC(=O)[C@H](CCCCN)NC(=O)[C@H](CC(C)C)NC(=O)[C@H](CC(C)C)NC(=O)[C@H](CCCCN)NC(=O)[C@H](CCCCN)NC(=O)[C@H](CC(C)C)NC(=O)[C@@H](NC(=O)[C@@H](N)CCCCN)CSSC[C@@H](C(=O)O)NC(=O)[C@H](CC(C)C)NC(=O)[C@H](CCCCN)NC(=O)[C@H](CC(C)C)NC(=O)[C@H](CC(C)C)NC(=O)[C@H](CCCCN)NC(=O)[C@H](CCCCN)NC1=O [SEQ ID NO:31] (H-KCLKKLLKGLKKLLKLC-OH; disulfide 2-17; N-terminus and C-terminus assumed) | 16 (≈ 8.13 µM) | – | – | – | – | – | – | –
KGLKKLLKLGKKLLKL [SEQ ID NO:3, KGLKKLLKLGKKLLKL] | – | 8 | 8 | <=4* μg/mL | 2 | 64 to 128 | – | –
KGLKKGLKGLKKLLKL [SEQ ID NO:40, KGLKKGLKGLKKLLKL] | 256 | – | – | – | – | – | – | –
KGLKKGLKLLKKLLKL [SEQ ID NO:2, KGLKKGLKLLKKLLKL] | – | 8 | 4 to 8 | <=4* μg/mL | 2 | 64 to 128 | – | –
CC(C)C[C@@H]1NC(=O)CNC(=O)[C@H](CCCCN)NC(=O)[C@H](CC(C)C)NC(=O)[C@H](CC(C)C)NC(=O)[C@H](CCCCN)NC(=O)[C@H](CCCCN)NC(=O)[C@H](CC(C)C)NC(=O)[C@@H](N)CSSC[C@@H](C(=O)O)NC(=O)[C@H](CC(C)C)NC(=O)[C@H](CCCCN)NC(=O)[C@H](CC(C)C)NC(=O)[C@H](CC(C)C)NC(=O)[C@H](CCCCN)NC(=O)[C@H](CCCCN)NC1=O [SEQ ID NO:38] (H-CLKKLLKGLKKLLKLC-OH; disulfide 1-16; N-terminus and C-terminus assumed) | 32 (≈ 17.4 µM) | – | – | – | – | – | – | –
KGGKKLLKGLKKLLKL [SEQ ID NO:43, KGGKKLLKGLKKLLKL] | – | 16 | 64 | <=4* μg/mL | 2 | 256 | – | –
